Test results reported in patent publication US20140039044A1, “Hydroxylated Polymethoxyflavone Compositions” (WLLGEN, INC., priority 2006, published 2014).
Like-named read-outs stand apart in the source and are kept apart here.

Columns and labels:
Assay type in all cases: cell-based, human
AGS cells [1] = assay: Cell cycle distribution by flow cytometry; conditions: 24 h; for Cell Cycle Distribution G0/G1 / Cell Cycle Distribution G2/M / Cell Cycle Distribution S: Table 11
Procedure: (§1) The human cancer cells (2×10^5) were cultured in 60-mm Petri dishes and incubated for 24 h. After treated with test compounds for 24 h, the cells were then harvested, washed with PBS resuspended in 200 μL of PBS, and fixed in 800 μL of iced 100% ethanol at −20° C. After being left to stand overnight, the cell pellets were collected by centrifugation, resuspended in 1 mL of hypotonic buffer (0.5% Triton X-100 in PBS and 0.5 μg/mL RNase) and incubated at 37° C. for 30 min. Next, 1 mL of propidium iodide solution (50 μg/mL) was added, and the mixture was allowed to stand on ice for 30 min. Fluorescence emitted from the propidium iodide-DNA complex was quantitated after excitation of the fluorescent dye by FACScan cytometry (Becton Dickinson, San Jose, Calif.).
(§2) The effects of the hydrolyzed PMF-enriched compositions, nobiletin and 70% PMF OPE on cell cycle distribution were studied, following the procedures described in Section 8.4. Results for cell cycle distribution in HL-60 cells, COLO205 cells and AGS cells are provided in Table 5, Table 6 and Table 7, respectively. […] In HL-60 cells, G2/M arrest predominated in cells treated with 6N PMF concentrations ≧5 μM and with 1N PMF concentrations ≧25 μM.
(§3) Compounds A-K were evaluated in terms of their effects in arresting cell cycle progression by observing cell cycle phase distribution in cells treated with the compounds. Cells were treated with 5, 10, 25, 50, and 100 μM of one of compound A-K or DMSO (control) for 24 h and subjected to flow cytometric analysis after staining their DNA, as described above.
(§4) Similar cell cycle phase distribution studies were performed in AGS, COLO205, and HT-29 cells in response to individual PMFs, with results reported in Tables 11, 12 and 13, respectively.

COLO205 cells [2] = assay: Cell cycle distribution by flow cytometry; conditions: 24 h; for Cell Cycle Distribution G0/G1 / Cell Cycle Distribution G2/M / Cell Cycle Distribution S: COLO205 cells, Table 12
Procedure: as §1, §2, §3, §4

HT-29 cells = assay: Cell survival assay (antiproliferative IC50)
Procedure: (§5) Human colon carcinoma COLO205 and HT-29 cell lines (American Type Culture Collection (ATTC), Manassas, Va.) and the leukemia cell line HL-60 were maintained at 37° C. in 5% CO2 air in RPMI 1640 medium supplemented with 10% heat-inactivated fetal bovine serum (Gibco BRL, Grand Island, N.Y.), 100 units/mL penicillin, 100 μg/mL streptomycin and 2 mM 1-glutamine. The human gastric carcinoma AGS cell line (CCRC 60102), obtained from the Food Industry Research and Development Institute (Hsinchu, Taiwan), was maintained as described above, except that DMEM/F 12 was used as the medium rather than the RPMI 1640 medium. The human breast carcinoma MCF-7 cell line MCF-7 (ATTC) was cultured in RPMI 1640 medium supplemented with 5% fetal calf serum at 37° C. in a humidified atmosphere of 5% CO2 in air. The mouse macrophage cell line RAW 264.7 was maintained in RPMI 1640 supplemented with 100 U/ml penicillin, 100 μg/ml streptomycin, and 10% heat-inactivated fetal calf serum.
(§6) Cancer cells (2×10^5) were plated in 12-well Petri dishes. The next day, the medium was changed and treated with different concentration of the test compounds or compositions for 24 h. Where individual compounds were to be tested, stock solutions of the compound was prepared to contain 200 μM of the individual hydroxylated or non-hydroxylated PMF in dimethylsulfoxide (DMSO). Control cells were treated with DMSO to a final concentration of 0.05% (v/v). Depending on the objective of the particular experiment, cells were treating with test compound or composition for 1, 3 or 6 days. At the end of incubation, cells were harvested for cell count using a hemocytometer and measuring the cellular total nucleic acid content with the CyQUANT Cell Proliferation Assay Kit (Molecular Probes).
(§7) The PMF compounds were assayed in vitro for cell growth inhibition and for their ability to induce apoptosis in various human cancer cells, including HL-60, AGS, COLO 205, and HT-29 cells, using methods described in Section 8.4 above. Antiproliferative (IC50) and apoptosis-inducing activity (AC50) of PMFs in the HL-60, AGS, COLO 205, and HT-29 cells are reported in Table 9, where *P<0.05, **P<0.01 and ***P<0.001 indicate statistically significant differences from the control group.

HL-60 cells = assay: Cell survival assay (antiproliferative IC50); conditions: HL-60 cells, read-out: Antiproliferative IC50
Procedure: as §5, §6
(§8) 1 N PMF and 6 N PMF compositions containing hydroxylated PMFs, prepared as described in Section 8.3 above, 70% PMF OPE and 5,6,7,8,3′,4′-hexamethoxyflavone (nobiletin) were tested for antiproliferative activity and apoptosis-inducing activity in HL-60, AGS and COLO205 cells as described in Section 8.4 above. Antiproliferative and apoptosis-inducing activities were derived as IC50 values and AC50, values, respectively, where AC50 is the concentration required for 50% apoptosis.
as §7

AGS cells [3] = assay: Cell survival assay (antiproliferative IC50); conditions: AGS cells, read-out: Antiproliferative IC50
Procedure: as §5, §6, §8, §7

COLO205 cells [4] = assay: Cell survival assay (antiproliferative IC50); conditions: COLO205 cells, read-out: Antiproliferative IC50
Procedure: as §5, §6, §8, §7

| SMILES | Cell Cycle Distribution G0/G1 (AGS cells [1]; 5 μM) | Cell Cycle Distribution G2/M (AGS cells [1]; 5 μM) | Cell Cycle Distribution S (AGS cells [1]; 5 μM) | Cell Cycle Distribution G0/G1 (AGS cells [1]; 10 μM) | Cell Cycle Distribution G2/M (AGS cells [1]; 10 μM) | Cell Cycle Distribution S (AGS cells [1]; 10 μM) | Cell Cycle Distribution G0/G1 (AGS cells [1]; 25 μM) | Cell Cycle Distribution G2/M (AGS cells [1]; 25 μM) | Cell Cycle Distribution S (AGS cells [1]; 25 μM) | Cell Cycle Distribution G0/G1 (AGS cells [1]; 50 μM) | Cell Cycle Distribution G2/M (AGS cells [1]; 50 μM) | Cell Cycle Distribution S (AGS cells [1]; 50 μM) | Cell Cycle Distribution G0/G1 (AGS cells [1]; 100 μM) | Cell Cycle Distribution G2/M (AGS cells [1]; 100 μM) | Cell Cycle Distribution S (AGS cells [1]; 100 μM) | Cell Cycle Distribution G0/G1 (COLO205 cells [2]; 5 μM) | Cell Cycle Distribution G2/M (COLO205 cells [2]; 5 μM) | Cell Cycle Distribution S (COLO205 cells [2]; 5 μM) | Cell Cycle Distribution G0/G1 (COLO205 cells [2]; 10 μM) | Cell Cycle Distribution G2/M (COLO205 cells [2]; 10 μM) | further results |
| --- | --- | --- | --- | --- | --- | --- | --- | --- | --- | --- | --- | --- | --- | --- | --- | --- | --- | --- | --- | --- | --- |
| COc1cc(-c2cc(=O)c3c(O)c(OC)c(OC)c(OC)c3o2)cc(OC)c1OC [E, 5-hydroxy-6,7,8,3′,4′,5′-hexamethoxyflavone] | 55.70 ± 0.14 | 15.88 ± 0.89 | 28.42 ± 0.75 | 56.96 ± 3.14 | 16.00 ± 0.55 | 27.05 ± 2.60 | 56.32 ± 2.62 | 14.40 ± 2.38 | 29.25 ± 0.18 | 54.53 ± 0.30 | 15.69 ± 1.41 | 29.79 ± 1.10 | 55.68 ± 0.46 | 13.51 ± 0.17 | 30.82 ± 0.29 | 67.66 ± 0.19 | 8.75 ± 0.17 | 23.60 ± 0.03 | 67.48 ± 0.59 | 8.29 ± 0.48 | Cell Cycle Distribution S (COLO205 cells [2]; 10 μM): 24.24 ± 0.11; Cell Cycle Distribution G0/G1 (COLO205 cells [2]; 25 μM): 67.40 ± 0.49; Cell Cycle Distribution G2/M (COLO205 cells [2]; 25 μM): 7.59 ± 1.18; Cell Cycle Distribution S (COLO205 cells [2]; 25 μM): 25.02 ± 0.70; Cell Cycle Distribution G0/G1 (COLO205 cells [2]; 50 μM): 69.49 ± 2.62; Cell Cycle Distribution G2/M (COLO205 cells [2]; 50 μM): 6.59 ± 0.82; Cell Cycle Distribution S (COLO205 cells [2]; 50 μM): 23.93 ± 1.80; Cell Cycle Distribution G0/G1 (COLO205 cells [2]; 100 μM): 69.99 ± 0.89; Cell Cycle Distribution G2/M (COLO205 cells [2]; 100 μM): 5.52 ± 0.90; Cell Cycle Distribution S (COLO205 cells [2]; 100 μM): 24.50 ± 0.00; IC50 (HT-29 cells; Homo sapiens): > 100 µM; IC50 (HL-60 cells; Homo sapiens): > 100 µM; IC50 (AGS cells [3]; Homo sapiens): > 100 µM; IC50 (COLO205 cells [4]; Homo sapiens, COLO 205): > 100 µM |
| COc1ccc(-c2oc3c(OC)c(OC)c(OC)c(O)c3c(=O)c2OC)cc1OC [Compound C, 5-hydroxy-3,6,7,8,3′,4′-hexamethoxyflavone] | 45.5 ± 1.06 | 9.9 ± 0.07 | 45.2 ± 0.35 | 29.6 ± 1.77 | 22.0 ± 0.78 | 26.1 ± 0.85 | 20.6 ± 0.42 | 47.3 ± 1.13 | 31.3 ± 0.49 | 18.2 ± 0.42 | 32.7 ± 0.57 | 50.1 ± 1.20 | 17.0 ± 0.07 | 32.4 ± 0.78 | 52.0 ± 0.85 | 63.55 ± 0.99 | 6.16 ± 0.37 | 30.29 ± 0.61 | 75.57 ± 0.83 | 6.37 ± 1.50 | Cell cycle arrest, in words (AGS cells [1]; 5-100 μM): decrease in G1 arrest accompanied by an increase in G2/M phase cell population; Cell Cycle Distribution S (COLO205 cells [2]; 10 μM): 18.07 ± 0.67; Cell Cycle Distribution G0/G1 (COLO205 cells [2]; 25 μM): 74.27 ± 0.83; Cell Cycle Distribution G2/M (COLO205 cells [2]; 25 μM): 0.43 ± 0.20; Cell Cycle Distribution S (COLO205 cells [2]; 25 μM): 25.30 ± 0.63; Cell Cycle Distribution G0/G1 (COLO205 cells [2]; 50 μM): 58.30 ± 0.57; Cell Cycle Distribution G2/M (COLO205 cells [2]; 50 μM): 16.70 ± 0.59; Cell Cycle Distribution S (COLO205 cells [2]; 50 μM): 25.00 ± 1.16; Cell Cycle Distribution G0/G1 (COLO205 cells [2]; 100 μM): 51.84 ± 0.31; Cell Cycle Distribution G2/M (COLO205 cells [2]; 100 μM): 19.04 ± 0.39; Cell Cycle Distribution S (COLO205 cells [2]; 100 μM): 29.13 ± 0.70; Cell cycle arrest, in words (COLO205 cells [2]; COLO 205 cells, 5-100 μM): decrease in G1 arrest accompanied by an increase in G2/M phase cell population; IC50 (HT-29 cells; Homo sapiens): 77.4 ± 1.82 µM; IC50 (HL-60 cells; Homo sapiens): 8.45 ± 1.6 µM; IC50 (AGS cells [3]; Homo sapiens): 17 ± 0.21 µM; IC50 (COLO205 cells [4]; Homo sapiens, COLO 205): 67 ± 1.4 µM |
| COc1ccc(-c2oc3c(OC)c(OC)c(OC)c(OC)c3c(=O)c2OC)cc1OC [D, 3,5,6,7,8,3,4-heptamethoxyflavone, reference compound] | 37.6 ± 0.92 | 0.4 ± 0.57 | 62.4 ± 0.85 | 44.2 ± 0.14 | 1.3 ± 0.42 | 55.2 ± 0.42 | 46.6 ± 0.35 | 4.7 ± 0.14 | 48.8 ± 0.42 | 48.0 ± 0.14 | 6.9 ± 0.42 | 45.7 ± 0.35 | 63.2 ± 0.78 | 4.0 ± 0.14 | 33.0 ± 0.49 | 60.81 ± 0.62 | 0.04 ± 0.05 | 39.16 ± 0.67 | 60.58 ± 0.57 | 0.40 ± 0.04 | Cell Cycle Distribution S (COLO205 cells [2]; 10 μM): 39.02 ± 0.61; Cell Cycle Distribution G0/G1 (COLO205 cells [2]; 25 μM): 61.91 ± 0.35; Cell Cycle Distribution G2/M (COLO205 cells [2]; 25 μM): 9.28 ± 0.59; Cell Cycle Distribution S (COLO205 cells [2]; 25 μM): 28.82 ± 0.23; Cell Cycle Distribution G0/G1 (COLO205 cells [2]; 50 μM): 68.87 ± 1.53; Cell Cycle Distribution G2/M (COLO205 cells [2]; 50 μM): 6.10 ± 2.64; Cell Cycle Distribution S (COLO205 cells [2]; 50 μM): 25.03 ± 1.12; Cell Cycle Distribution G0/G1 (COLO205 cells [2]; 100 μM): 75.17 ± 0.05; Cell Cycle Distribution G2/M (COLO205 cells [2]; 100 μM): 5.72 ± 0.64; Cell Cycle Distribution S (COLO205 cells [2]; 100 μM): 19.12 ± 0.69; IC50 (HT-29 cells): > 100 µM; IC50 (HL-60 cells): 54.4 ± 0.9 µM; IC50 (AGS cells [3]): > 100 µM; IC50 (COLO205 cells [4]): 62.5 ± 1.81 µM |
